Laboratory results: patent US10646455B2, “Uses of hydroxyanigorufone” (TCI CO., LTD, priority 2017, dated 2020)

Tests used:
Format in all cases: cell-based
Conditions in all cases: 0.0625 μg/ml, 48 hours, control set as 1-fold, average of three experiments
TPH1 gene = test: qPCR expression of TPH1 gene in SHSY5Y cells
Method: (§1) SHSY5Y cells were seeded in a 6-well plate (1×10^5 cells/well) and then cultured for 24 hours. Thereafter, cells were divided into the control group and experimental group and were separately cultured in the following medium for 48 hours: • 1. Control group: DMEM medium; • 2. Experimental group: a medium the same as that of the control group, but additionally added with 0.0625 μg/ml of the compound of formula (I).
(§2) Thereafter, cells of the above groups were harvested and subjected to an RNA extraction with an RNA Extract Kit. The RNA thus obtained was then transcribed into cDNA by using a Reverse Transcriptase. Thereafter, the cDNA was subjected to a quantitative polymerase chain reaction (qPCR) by using a Step One Plus system and a KAPA SYBR FAST qPCR kit to determine the expression levels of genes related to melatonin (including TPH1, DDC, AANAT and ASMTL) in the cells of each group.
(§3) The above experimental steps were repeated three times, and then the results of the three experiments were averaged. Thereafter, the result of the control group was used as a basis (i.e., the gene expression level of the control group was set as 1-fold) to calculate the relative gene expression level of the experimental group.

DDC gene = test: qPCR expression of DDC gene in SHSY5Y cells
Method: as §1, §2, §3

AANAT gene = test: qPCR expression of AANAT gene in SHSY5Y cells
Method: as §1, §2, §3

ASMTL gene = test: qPCR expression of ASMTL gene in SHSY5Y cells
Method: as §1, §2, §3

O=C1C(O)=Cc2cccc3ccc(-c4ccc(O)cc4)c1c23 [compound of formula (I), hydroxyanigorufone]
significantly increased: expression level of TPH1 gene relative to control group (TPH1 gene) | expression level of DDC gene relative to control group (DDC gene) | expression level of AANAT gene relative to control group (AANAT gene) | expression level of ASMTL gene relative to control group (ASMTL gene)
